Results published in US9403829B2, “Pharmaceutical compositions of 7-(6-(2-hydroxypropan-2-yl)pyridin-3-yl)-1-((trans)-4-methoxycyclohexyl)-3,4-dihydropyrazino [2,3-b]pyrazin-2(1H)-one, a solid form thereof and methods of their use” (Signal Pharmaceuticals, LLC, priority 2011, dated 2016).
Each block holds one compound with its values, some of them ahead of it.

Assays:
[1] = Phase 1 crossover pharmacokinetic study of tablet and capsule formulations, single oral dose; type: in vivo, human
Procedure: Certain formulations provided herein were evaluated in a Phase 1, open-label, randomized, crossover study.
On Day 1 of Period 1, following an overnight fast of at least 8 hours, subjects were randomized to one of the following 3 sequences to receive Treatment A, B or C (Table 30).
In Treatment A, one 20-mg reference Compound A API-in-capsule was administered orally after at least 8 hour fast with 240 mL of non-carbonated, room temperature water. In Treatment B, one 20-mg tablet of Compound A (Tablet Formulation XIII) was administered under fasted conditions. In Treatment C, four 5-mg tablets of Compound A (Tablet Formulation XIV) were administered under fasted conditions. The 20-mg tablet and four 5-mg tablets were administered orally after at least 8 hour fast with 240 mL of non-carbonated, room temperature water.
For each period, serial blood samples were collected before dosing (zero hour) and at 0.5, 1, 1.5, 2, 2.5, 3, 4, 6, 8, 12, 24, 48, 72, and 96 hours after dosing. Plasma concentrations of Compound A were determined for determining PK parameters, such as […], AUC0-∞, Cmax, Tmax, t1/2, CL/F, and Vz/F for Compound A. Plasma PK parameters were calculated using non compartmental methods. Analyses of variance (ANOVA) were performed on the natural log-transformed AUC0-t, AUC0-∞, and Cmax for Compound A. The geometric mean ratios (test/reference) and their 90% confidence intervals were also calculated. For Tmax, non parametric analysis was used to produce median differences.

[2] = Phase 1 food effect study (Part 2), single 20-mg oral dose of Compound A tablet, fed vs fasted; type: in vivo, human; settings: for CL/F / Tmax / AUC(0-inf) / Cmax / half-life / AUC(0-t) / Vd/F: single 20-mg oral dose of Compound A tablet; for CL/F / AUC(0-inf) / Cmax / half-life / AUC(0-t) / Vd/F: geometric mean; for Tmax / AUC(0-inf) / Cmax / half-life / AUC(0-t) / Vd/F: male, human, plasma, po, 20 mg; for Tmax: median, read-out: Tmax; for AUC(0-t): read-out: AUC0-24; for Vd/F: read-out: Vz/F
Procedure: The primary objectives of this study are: to characterize the biotransformation and excretion of Compound A following a single 20 mg oral dose of Compound A capsule containing a microtracer of [^14C]-Compound A solution in healthy male subjects (Part 1) and to evaluate the effect of a high-fat meal on the pharmacokinetics (PK) of Compound A following a single oral 20-mg dose of Compound A tablet (Part 2).
Part 2 design: Part 2 will be a 2-period crossover study; in Period 1, subjects (n=12) will be randomized to receive either an oral 20 mg dose of Compound A tablet (Treatment B) under fed (n=6) or fasted (n=6) conditions. In Period 2, subjects will receive Treatment B under converse conditions based on treatment assignment in Period 1. After screening, subjects (n=12) eligible for participation in the study will return to the study center on Day −1 for baseline assessments. Subjects who continue to be qualified for participation in the study will be randomized and enrolled in the study on the morning of Day 1. Subjects (n=6) will be enrolled and randomized to receive Treatment B under fed or fasted conditions on the morning of Day 1 after fasting for at least 8 hours. Fed subjects will be served a standard high fat meal breakfast, or its equivalent, that must be consumed within 30 minutes from serving. Dosing must occur 30 minutes (+5 minutes) after serving a subject breakfast. All subjects (fed and fasted) will fast (not to consume any food) until 4 hours post dose. Water will be allowed during the fasting period. Subjects will be domiciled at the study center from Day −1 until the morning of Day 5 of each period. Subjects will be discharged from the study center on the morning of Day 5 upon satisfactory safety review and completion of study-related procedures. Safety and tolerability data will be monitored and collected following each dosing period. Periods 1 and 2 will be separated by a washout period of at least 7 days (no more than 10 days) from prior dose to the next dose. In certain instances, a longer washout may be acceptable if previously agreed to.
Serial blood samples (10 mL) will be collected at predose (0 hour) and at 0.5, 1, 2, 3, 6, 12, 24, 48, 72 and 96 hours post dose for the determination of plasma concentrations of Compound A and the O-desmethyl metabolite of Compound A. Safety will be monitored throughout the study; safety evaluations will include AE reporting, physical examinations, vital sign measurements, ECG, and clinical laboratory safety tests. Concomitant medications will be assessed and recorded throughout the study as well. In addition, during the subjects' stay-in-the clinic (i.e., confinement period), fasting plasma glucose levels will be monitored as part of the clinical laboratory safety tests. For Parts 1 and 2, all subjects will return to the clinic within 7 to days after the last dose for follow up safety assessments. In the event that a subject discontinues prematurely from the study, every reasonable effort should be made (and documented) to ensure that all procedures and evaluations scheduled for the follow-up visit are performed at the time of discontinuation or a follow-up visit should be scheduled within 7 to days from the discontinuation day.
Part 2 dosing: In Part 2, subjects will fast overnight for at least 8 hours prior to Compound A administration. On the morning of Day 1, each subject will receive a 20-mg tablet of Compound A orally. Subjects randomized to receive Compound A under fed conditions will be a served a standard high fat meal (breakfast).
The standard high fat meal or its equivalent must be consumed within minutes of serving. Dosing must occur 30 minutes (+5 minutes) after serving the meal. The tablet will be administered with approximately 240 mL of non-carbonated, room temperature water. After dosing, subjects will continue to fast until 4 hours after dosing.

[3] = Gravimetric vapour sorption (DVS) hygroscopicity; type: physicochemical; settings: for water uptake (mass gain): between 0 and 80% relative humidity, DVS, 25° C.
Procedure: Sorption isotherms were obtained using a SMS DVS Intrinsic moisture sorption analyser, controlled by DVS Intrinsic Control software v1.0.0.30. The sample temperature was maintained at 25° C. by the instrument controls. The humidity was controlled by mixing streams of dry and wet nitrogen, with a total flow rate of 200 mL/min. The relative humidity was measured by a calibrated Rotronic probe (dynamic range of 1.0-100% RH), located near the sample. The weight change, (mass relaxation) of the sample as a function of % RH was constantly monitored by the microbalance (accuracy±0.005 mg). Typically 5-20 mg of sample was placed in a tared mesh stainless steel basket under ambient conditions. The sample was loaded and unloaded at 40% RH and 25° C. (typical room conditions). The standard isotherm was performed at 25° C. at 10% RH intervals over a 0-90% RH range. Data analysis was undertaken in Microsoft Excel using DVS Analysis Suite v6.0.0.7.
Hygroscopicity of Form A was determined by moisture adsorption and desorption.

[4] = fed vs fasted, healthy adult males, 20 mg Compound A

- CL/F ([1]; Treatment A: one 20-mg Compound A API-in-capsule, oral, fasted, n = 18, geometric mean): 20.3 L/h
- half-life ([1]; male, human, plasma, Treatment A: one 20-mg Compound A API-in-capsule, oral, fasted, n = 18, geometric mean): 5.7 h
- Vd/F ([1]; male, human, plasma, Treatment A: one 20-mg Compound A API-in-capsule, oral, fasted, n = 18, geometric mean, read-out: Vz/F): 167 L
- Tmax ([1]; male, human, Treatment A: one 20-mg Compound A API-in-capsule, oral, fasted, healthy adult males, n = 18, plasma, median): 1.5 h
- Cmax ([1]; male, human, Treatment A: one 20-mg Compound A API-in-capsule, oral, fasted, n = 18, plasma, geometric mean): 190 ng/mL
- AUC(0-t) ([1]; male, human, Treatment A: one 20-mg Compound A API-in-capsule, oral, fasted, n = 18, plasma, geometric mean, read-out: AUC0-24): 934 ng·h/mL
- AUC(0-inf) ([1]; male, human, Treatment A: one 20-mg Compound A API-in-capsule, oral, fasted, n = 18, plasma, geometric mean, read-out: AUC0-∞): 985 ng·h/mL
- pharmacokinetics, tablet formulations vs API in capsule ([1]; single dose 20 mg, healthy adult male subjects): comparable
- CL/F ([2]; Fasted (n = 11)): 19.9 L/h
- CL/F ([2]; Fed (n = 11, high fat meal)): 16.7 L/h
- decrease in Cmax with a high fat meal [2, 4]: ~17%
- increase in overall exposure (AUCinf) with a high fat meal [2, 4]: ~20%
- Tmax ([2]; Fasted (n = 11), healthy adult males): 1 h
- AUC(0-inf) ([2]; Fasted (n = 11)): 1000 ng·h/mL
- Cmax ([2]; Fasted (n = 11)): 182 ng/mL
- half-life ([2]; Fasted (n = 11)): 5.3 h
- AUC(0-t) ([2]; Fasted (n = 11)): 955 ng·h/mL
- Vd/F ([2]; Fasted (n = 11)): 151 L
- AUC(0-inf) ([2]; Fed (n = 11, high fat meal)): 1200 ng·h/mL
- Cmax ([2]; Fed (n = 11, high fat meal)): 156 ng/mL
- half-life ([2]; Fed (n = 11, high fat meal)): 5.2 h
- AUC(0-t) ([2]; Fed (n = 11, high fat meal)): 1130 ng·h/mL
- Vd/F ([2]; Fed (n = 11, high fat meal)): 125 L
- Tmax ([2]; Fed (n = 11, high fat meal)): 3 h
SMILES: CO[C@H]1CC[C@H](N2C(=O)CNc3ncc(-c4ccc(C(C)(C)O)nc4)nc32)CC1 [Compound A, 7-(6-(2-hydroxypropan-2-yl)pyridin-3-yl)-1-((trans)-4-methoxycyclohexyl)-3,4-dihydropyrazino[2,3-b]pyrazin-2(1H)-one]

- hygroscopicity ([3]; DVS moisture adsorption and desorption): not hygroscopic
- XRPD diffractogram after full adsorption/desorption cycle ([3]; after DVS cycle): unchanged from the initial Form A
- water uptake (mass gain) [3]: < 0.1 % w/w
- water uptake (mass gain) ([3]; listed as Form A of Compound A): less than 0.1 % w/w
- weight gain ([3]; increase in humidity from about 0% to about 50% relative humidity at about 25° C.): about 0.1 % w/w
- weight gain ([3]; increase in humidity from about 0% to about 95% relative humidity at about 25° C.): about 0.3 % w/w
- mass gain ([3]; increase in humidity from about 80% to about 90% relative humidity): about 0.5 % w/w
SMILES: CO[C@H]1CC[C@H](N2C(=O)CNc3ncc(-c4ccc(C(C)(C)O)nc4)nc32)CC1 [Form A, 7-(6-(2-hydroxypropan-2-yl)pyridin-3-yl)-1-((trans)-4-methoxycyclohexyl)-3,4-dihydropyrazino[2,3-b]pyrazin-2(1H)-one]
